Test results from patent US5780245A, “Polypeptides having a serotonin receptor activity, nucleic acids coding for these polypeptides and uses” (priority 1992, dated 1998).
Where two headings read alike, the source gives them in different places.

What was measured:
[1] = target: whole (N) 5HT2C receptor (Mus musculus, UniProt Q02152); test: biochemical; format: binding; settings: for competition / order of efficacy of displacement: displacement of [^125 I]DOI
[2] = target: T1, truncated (T) 5HT2C receptor (Mus musculus, UniProt Q02152, S167T); test: biochemical; format: binding
T1 sequence (Q02152 with tags, fused parts or gaps S167T): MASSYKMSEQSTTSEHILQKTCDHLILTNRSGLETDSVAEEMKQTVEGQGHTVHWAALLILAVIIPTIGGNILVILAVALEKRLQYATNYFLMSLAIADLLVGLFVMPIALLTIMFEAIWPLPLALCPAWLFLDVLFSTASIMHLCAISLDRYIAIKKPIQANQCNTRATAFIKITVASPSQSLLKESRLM

[3] = target: 5-HT2 (Homo sapiens, UniProt P28223); test: binding to 5-HT2 (Table 1 comparison)
5-HT2, sequence (P28223 whole entry, species assumed): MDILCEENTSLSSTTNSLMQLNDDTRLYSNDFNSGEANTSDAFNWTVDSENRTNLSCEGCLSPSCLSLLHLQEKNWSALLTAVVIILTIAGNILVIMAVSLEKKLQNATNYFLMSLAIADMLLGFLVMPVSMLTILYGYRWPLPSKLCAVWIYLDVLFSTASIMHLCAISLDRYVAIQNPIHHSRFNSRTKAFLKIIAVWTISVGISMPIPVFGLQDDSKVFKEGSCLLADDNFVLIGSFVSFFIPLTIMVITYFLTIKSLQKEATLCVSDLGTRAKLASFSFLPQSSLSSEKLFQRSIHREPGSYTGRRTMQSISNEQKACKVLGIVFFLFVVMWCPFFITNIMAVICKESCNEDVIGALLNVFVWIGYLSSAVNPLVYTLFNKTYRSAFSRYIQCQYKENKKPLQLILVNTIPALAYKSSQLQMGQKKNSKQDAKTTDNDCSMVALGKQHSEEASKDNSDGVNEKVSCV

[4] = target: T2, 5-HT1C (Homo sapiens, UniProt P28335); test: biochemical; format: binding
T2 sequence (P28335 33-458): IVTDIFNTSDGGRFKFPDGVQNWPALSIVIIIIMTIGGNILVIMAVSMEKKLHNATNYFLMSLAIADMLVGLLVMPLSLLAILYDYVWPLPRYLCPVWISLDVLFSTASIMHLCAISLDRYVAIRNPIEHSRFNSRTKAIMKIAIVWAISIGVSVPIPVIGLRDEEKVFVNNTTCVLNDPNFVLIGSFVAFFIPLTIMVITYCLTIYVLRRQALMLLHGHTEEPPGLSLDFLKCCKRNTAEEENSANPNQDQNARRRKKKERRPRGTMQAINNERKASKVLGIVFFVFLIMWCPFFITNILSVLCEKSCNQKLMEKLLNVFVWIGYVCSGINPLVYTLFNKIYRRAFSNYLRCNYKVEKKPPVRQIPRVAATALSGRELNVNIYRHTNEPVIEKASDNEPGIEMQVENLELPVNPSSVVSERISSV

[5] = target: T3, 5HT2C receptor (Mus musculus, UniProt Q02152); test: saturation binding of [^125 I]DOI to membranes of Cos-7 cells expressing the 5HT2C receptor
T3 construct: expressed in transfected cells; host or cells: Cos-7
T3 sequence (Q02152 whole entry S167T/A227V/S449C): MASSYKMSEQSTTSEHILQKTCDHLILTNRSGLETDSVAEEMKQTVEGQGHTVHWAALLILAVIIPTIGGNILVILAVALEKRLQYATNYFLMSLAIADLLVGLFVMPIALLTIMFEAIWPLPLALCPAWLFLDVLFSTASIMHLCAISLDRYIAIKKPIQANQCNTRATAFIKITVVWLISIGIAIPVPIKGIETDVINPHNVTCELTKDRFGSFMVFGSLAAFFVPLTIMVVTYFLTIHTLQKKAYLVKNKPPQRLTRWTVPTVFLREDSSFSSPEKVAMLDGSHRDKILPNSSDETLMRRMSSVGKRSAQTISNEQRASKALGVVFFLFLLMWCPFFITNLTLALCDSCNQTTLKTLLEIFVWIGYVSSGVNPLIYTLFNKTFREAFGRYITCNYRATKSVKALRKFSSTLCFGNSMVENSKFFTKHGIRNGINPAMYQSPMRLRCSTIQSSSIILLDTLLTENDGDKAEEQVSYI
Procedure: FIG. 1 Scatchard curve of the results of experiments for the binding, at saturation, of [^125 I]DOI to the membranes of Cos-7 cells expressing the 5HT2C receptor.
The cDNA fragment isolated in Example 1 was inserted into an eukaryotic expression vector, which was used to transfect Cos-7 cells. The membranes of the transfected cells obtained were then prepared and tested for their capacity to bind certain labelled serotoninergic ligands.
The cDNA encoding the 5HT2C receptor was isolated in the form of a 1372 pb XbaI-EcoRI fragment and then inserted at the corresponding sites of the vector p513. The vector p513 is derived from the vector pSG5 [Green et al., Nucl. Acids Res. 16 (1988) 369] by addition of a multiple cloning site. The recombinant vector thus obtained, designated p513NP75, was then used (10 μg per 10 cm dish) to transfect the Cos-7 cells in the presence of calcium phosphate.
48 Hours after transfection, the recombinant cells are harvested and the membranes are prepared according to the technique described by Amlaiky and Caron [J. Biol. Chem. 260 (1985) 1983].
Saturation binding and competition experiments were then carried out on these membranes in the presence of [^125 I]DOI (2200 Ci/mmol; New England Nuclear) and various test compounds.
(§1) The [^125 I]DOI (dimethoxyphenyl isopropylamine) was first used alone, in order to detect the expression of the gene encoding the receptors of the invention in the membranes of the recombinant cells. For this purpose, 100 μl of membrane suspension ([…]) of proteins) were incubated for 30 minutes at 30° C. in the presence of the radioactive ligand (50 μl) and 50 μl of 50 mM Tris-HCl buffer (pH 7.4), 150 mM NaCl, 10 mm MgCl2, final volume: 200 μl. The reaction is then stopped by addition of an isoosmotic ice-cold solution, then by filtration on Whatman GF/B filters, followed by 4 rinses in 5 ml of the above ice-cold buffer. The filters are then dried and the radioactivity is measured by counting (γ counter). Non-specific binding, determined in the presence of 10 μM of cold DOI, represented about 30% of the total binding.

[6] = test system: membranes of the control cells (transfected with plasmid pSG5); test: [^125 I]DOI binding to membranes of control cells (transfected with plasmid pSG5)
Procedure: as §1
These cells therefore indeed express a functional serotonin receptor.

[7] = test system: coronary arteries; settings: human coronary atherosclerosis; Golino et al.; cited from earlier work
[8] = test system: translation of the intracellular signal; test: translation of the intracellular signal by the truncated receptor; format: cell-based, mouse; settings: truncated protein
Text: The physiological role of this form of the receptor remains unknown, but it seems likely that it serves to protect certain sensitive targets, such as the vascular endothelium, from harmful stimulations by locally "diluting" the effect of the ligand, in this case serotonin.

[9] = [^125 I]DOI displacement, Cos-7 membranes, whole receptor, at least three experiments in triplicate, read-out: pKD, binding to the COS N cells (converted)
[10] = [^125 I]DOI displacement, COS membranes, truncated receptor, at least three experiments in triplicate, read-out: pKD, binding to the COS T (converted)
[11] = Table 1 comparison column, source of values not stated

whole (N) 5HT2C receptor, sequence (Q02152 whole entry S167T/A227V/S449C, the tested form may be a part): as the sequence (Q02152 whole entry S167T/A227V/S449C) above

**Q.** With `CN1[C@@H]2CC[C@H]1C[C@@H](OC(=O)c1cc(Cl)cc(Cl)c1)C2` [MDL 72222] as the molecule, how does the Kd [1, 9] read?
**A.** 24000 nM

**Q.** What about the “competition” value ([1]; whole receptor) of the same molecule?
**A.** absence of competition

**Q.** And the Kd [2, 10]?
**A.** > 100000 nM

**Q.** And the Kd [3]?
**A.** 200 nM

**Q.** What about the Kd [4, 11] of the same molecule?
**A.** > 10000 nM

**Q.** With `CN(C)CCCN1c2ccccc2Sc2ccc(Cl)cc21` [Chlorpromazine] as the molecule, how does the Kd [1, 9] read?
**A.** > 100000 nM

**Q.** And the Kd [2, 10]?
**A.** > 100000 nM

**Q.** For `NCCc1c[nH]c2ccccc12` [Tryptamine], which Kd [1] is on record?
**A.** 200 nM

**Q.** And the “order of efficacy of displacement” value ([1]; whole receptor)?
**A.** ritanserin>N-acetyl 5-HT>methysergide>setoperone=cyproheptadine>spiperone>ketanserin>tryptamine>5-HT >8-OH-DPAT

**Q.** What about the Kd [2, 10] of the same molecule?
**A.** 14500 nM

**Q.** What about the Kd [4] of the same molecule?
**A.** 63.1 nM

**Q.** For `COc1ccc2[nH]cc(CCN(C)C)c2c1` [NNdiMe-5-MeOT], which Kd [1] is on record?
**A.** 7410 nM

**Q.** And the Kd [2, 10]?
**A.** 45700 nM

**Q.** Which results are given for `Cc1nc2n(c(=O)c1CCN1CCC(C(=O)c3ccc(F)cc3)CC1)CCS2` [Setoperone]?
**A.** Kd [1, 9]: 24.5 nM; order of efficacy of displacement ([1]; whole receptor): ritanserin>N-acetyl 5-HT>methysergide>setoperone=cyproheptadine>spiperone>ketanserin>tryptamine>5-HT >8-OH-DPAT; Kd [2, 10]: > 100000 nM; Kd [3]: 2.51 nM; Kd [4, 11]: 50.1 nM

**Q.** For `COc1cc(CC(C)N)c(OC)cc1I` (stereo not shown) [DOI, dimethoxyphenyl isopropylamine], which “specific binding to the membranes of the transfected cells” value ([5]; [^125 I]DOI) is on record?
**A.** binds specifically to the membranes of the transfected cells

**Q.** What about the Kd ([5]; [^125 I]DOI saturation binding, 30 minutes at 30° C., pH 7.4, read-out: apparent KD) of the same molecule?
**A.** 25.8 ± 0.54 nM

**Q.** What about the “affinity for the transfected cells” value ([5]; [^125 I]DOI saturation binding, FIG. 1) of the same molecule?
**A.** high and the binding is saturable

**Q.** What about the “non-specific binding (of the total binding)” value ([5]; in the presence of 10 μM of cold DOI) of the same molecule?
**A.** about 30%

**Q.** And the “binding to membranes of the control cells” value [6]?
**A.** not to the membranes of the control cells

**Q.** For `CN1CCC(=C2c3ccccc3C=Cc3ccccc32)CC1` [Cyproheptadine], which Kd [4, 11] is on record?
**A.** 12.6 nM

**Q.** Which Kd [1, 9] does the source give for `c1ccc2nc(N3CCNCC3)ccc2c1` [Quipazine] here?
**A.** 6610 nM

**Q.** What about the “competition” value ([1]; whole receptor) of the same molecule?
**A.** absence of competition

**Q.** What about the Kd [2, 10] of the same molecule?
**A.** 14100 nM

**Q.** And the Kd [3]?
**A.** 631 nM

**Q.** And the Kd [4]?
**A.** 200 nM

**Q.** With `O=C(c1ccc(F)cc1)C1CCN(CCn2c(=O)[nH]c3ccccc3c2=O)CC1` [Ketanserin] as the molecule, how does the Kd [1, 9] read?
**A.** 204 nM

**Q.** And the “order of efficacy of displacement” value ([1]; whole receptor)?
**A.** ritanserin>N-acetyl 5-HT>methysergide>setoperone=cyproheptadine>spiperone>ketanserin>tryptamine>5-HT >8-OH-DPAT

**Q.** And the Kd [2]?
**A.** > 100000 nM

**Q.** What about the “increased sensitivity to serotonin of the contraction of the coronary arteries” value [7] of the same molecule?
**A.** can be reduced by ketanserin

**Q.** Which results are given for `CN1C2CCC1CC(OC(=O)c1c[nH]c3ccccc13)C2` (stereo not shown) [ICS 205-930]?
**A.** competition ([1]; whole receptor): absence of competition; Kd [2, 10]: > 100000 nM; Kd [4]: 25100 nM

**Q.** For `CC[C@@H](CO)NC(=O)[C@@H]1C=C2c3cccc4c3c(cn4C)C[C@H]2N(C)C1` [Methysergide], which Kd [1] is on record?
**A.** 12.6 nM

**Q.** What about the “order of efficacy of displacement” value ([1]; whole receptor) of the same molecule?
**A.** ritanserin>N-acetyl 5-HT>methysergide>setoperone=cyproheptadine>spiperone>ketanserin>tryptamine>5-HT >8-OH-DPAT

**Q.** And the Kd [4]?
**A.** 2.51 nM

**Q.** Which Kd [1] does the source give for `CC(=O)NCCc1c[nH]c2ccc(O)cc12` [N-Acetyl-5-HT] here?
**A.** 7.08 nM

**Q.** And the “order of efficacy of displacement” value ([1]; whole receptor)?
**A.** ritanserin>N-acetyl 5-HT>methysergide>setoperone=cyproheptadine>spiperone>ketanserin>tryptamine>5-HT >8-OH-DPAT

**Q.** And the Kd [2, 10]?
**A.** 200 nM

**Q.** What about the Kd [3] of the same molecule?
**A.** 3160 nM

**Q.** What about the Kd [4] of the same molecule?
**A.** 794 nM

**Q.** Which “order of efficacy of displacement” value ([1]; whole receptor) does the source give for `Cc1nc2sccn2c(=O)c1CCN1CCC(=C(c2ccc(F)cc2)c2ccc(F)cc2)CC1` [Ritanserin] here?
**A.** ritanserin>N-acetyl 5-HT>methysergide>setoperone=cyproheptadine>spiperone>ketanserin>tryptamine>5-HT >8-OH-DPAT

**Q.** What about the Kd [4] of the same molecule?
**A.** 2.51 nM

**Q.** Which results are given for `Cc1[nH]c2ccc(O)cc2c1CCN` [2-Me-5-HT]?
**A.** Kd [1]: 6610 nM; Kd [2, 10]: > 100000 nM; Kd [3, 11]: 6310 nM; Kd [4]: 1580 nM

**Q.** For `Cn1cc(CCN)c2cc(O)ccc21` [1-ME-5-HT], which Kd [1] is on record?
**A.** 2510 nM

**Q.** What about the Kd [2, 10] of the same molecule?
**A.** 60300 nM

**Q.** What about the Kd [3, 11] of the same molecule?
**A.** 501 nM

**Q.** And the Kd [4]?
**A.** 3.98 nM

**Q.** Which Kd [1] does the source give for `CCCN(CCC)C1CCc2cccc(O)c2C1` (stereo not shown) [8-OH-DPAT] here?
**A.** 6460 nM

**Q.** And the “order of efficacy of displacement” value ([1]; whole receptor)?
**A.** ritanserin>N-acetyl 5-HT>methysergide>setoperone=cyproheptadine>spiperone>ketanserin>tryptamine>5-HT >8-OH-DPAT

**Q.** And the Kd [2, 10]?
**A.** > 100000 nM

**Q.** And the Kd [3]?
**A.** 10000 nM

**Q.** For `O=C(CCCN1CCC2(CC1)C(=O)NCN2c1ccccc1)c1ccc(F)cc1` [Spiperone], which Kd [1, 9] is on record?
**A.** 50.1 nM

**Q.** And the “order of efficacy of displacement” value ([1]; whole receptor)?
**A.** ritanserin>N-acetyl 5-HT>methysergide>setoperone=cyproheptadine>spiperone>ketanserin>tryptamine>5-HT >8-OH-DPAT

**Q.** And the Kd [2, 10]?
**A.** > 100000 nM

**Q.** What about the Kd [4, 11] of the same molecule?
**A.** 1260 nM

**Q.** For `NCCc1c[nH]cn1` [Histamine], which Kd [1, 9] is on record?
**A.** > 100000 nM

**Q.** What about the Kd [2, 10] of the same molecule?
**A.** > 100000 nM

**Q.** What about the Kd [3] of the same molecule?
**A.** > 100000 nM

**Q.** What about the Kd [4, 11] of the same molecule?
**A.** > 100000 nM

B1: truncated protein: receptor having only the first three transmembrane domains, residues 1 to 177 SEQ ID No. 2 plus 14 C-terminal amino acids (protein)
chain: MASSYKMSEQSTTSEHILQKTCDHLILTNRSGLETDSVAEEMKQTVEGQGHTVHWAALLILAVIIPTIGGNILVILAVALEKRLQYATNYFLMSLAIADLLVGLFVMPIALLTIMFEAIWPLPLALCPAWLFLDVLFSTASIMHLCAISLDRYIAIKKPIQANQCNTRATAFIKITV
modifications: plus 14 C-terminal amino acids
**Q.** For B1, which “translation of the intracellular signal” value [8] is on record?
**A.** completely abolished
